PMC11957517, “Efficient production of hydroxysalidroside in Escherichia coli via enhanced glycosylation and semi-rational design of UGT85A1” (Synthetic and Systems Biotechnology, 2025)

Columns and labels:
UGT13 = target: T1, UGT13 (Oryza sativa, UniProt Q6Z684); assay: whole-cell conversion in E. coli, HPLC; assay type: cell-based; conditions: intracellular UDPG, pgm and galU overexpressed, 48 h
T1 construct: synthesized gene in pETDuet-1, E. coli BL21(DE3) whole cells with pCDFDuet-pgm-galU
T1 sequence (Q6Z684 1-485): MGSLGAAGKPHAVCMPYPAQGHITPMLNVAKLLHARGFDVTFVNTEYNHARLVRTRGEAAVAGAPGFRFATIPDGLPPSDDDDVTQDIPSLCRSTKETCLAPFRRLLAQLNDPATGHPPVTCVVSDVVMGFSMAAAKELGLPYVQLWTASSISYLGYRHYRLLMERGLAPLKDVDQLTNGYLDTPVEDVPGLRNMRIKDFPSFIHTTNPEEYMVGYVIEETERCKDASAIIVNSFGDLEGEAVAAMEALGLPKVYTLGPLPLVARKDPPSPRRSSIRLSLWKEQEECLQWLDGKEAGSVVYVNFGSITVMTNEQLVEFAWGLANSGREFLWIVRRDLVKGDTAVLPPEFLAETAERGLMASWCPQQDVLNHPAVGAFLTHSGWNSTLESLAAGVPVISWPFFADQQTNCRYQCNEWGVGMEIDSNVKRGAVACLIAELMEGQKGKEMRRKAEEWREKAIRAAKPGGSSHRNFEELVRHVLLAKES

UGT33 = target: T2, UGT33 (Rhodiola rosea, UniProt A0A2I6B3R9); assay: whole-cell conversion in E. coli, HPLC; assay type: cell-based; conditions: intracellular UDPG, pgm and galU overexpressed, 48 h
T2 construct: synthesized gene in pETDuet-1, E. coli BL21(DE3) whole cells with pCDFDuet-pgm-galU
T2 sequence (A0A2I6B3R9 1-498): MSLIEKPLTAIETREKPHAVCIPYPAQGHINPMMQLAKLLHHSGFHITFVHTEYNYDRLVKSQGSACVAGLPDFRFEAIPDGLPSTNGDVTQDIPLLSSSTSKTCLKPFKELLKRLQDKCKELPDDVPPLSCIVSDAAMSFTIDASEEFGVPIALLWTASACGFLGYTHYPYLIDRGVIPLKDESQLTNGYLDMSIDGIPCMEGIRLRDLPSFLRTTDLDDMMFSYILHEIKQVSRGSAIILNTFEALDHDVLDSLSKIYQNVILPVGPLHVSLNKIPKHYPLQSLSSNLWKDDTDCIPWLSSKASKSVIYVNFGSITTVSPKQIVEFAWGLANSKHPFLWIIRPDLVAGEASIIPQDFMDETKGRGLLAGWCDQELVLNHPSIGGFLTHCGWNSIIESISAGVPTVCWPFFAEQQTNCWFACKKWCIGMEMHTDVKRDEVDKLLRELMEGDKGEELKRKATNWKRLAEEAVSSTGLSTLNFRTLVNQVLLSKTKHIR

For OCCc1ccc(O)c(O)c1 [hydroxytyrosol], the “whole-cell conversion in E. coli, HPLC” value (UGT13) was “all these enzymes could catalyze the synthesis of hydroxysalidroside” and the “whole-cell conversion in E. coli, HPLC” value (UGT33) was “all these enzymes could catalyze the synthesis of hydroxysalidroside”.
